Literature values, collected in US20060217894A1, “Use of computationally derived protein structures of genetic polymorphisms in pharmacogenomics for drug design and clinical applications” (priority 1999, published 2006).

Molecular target: NS3 protease (Hepatitis C virus genotype 1b, UniProt P26663)
Details: values obtained from literature (Ingallinella et al. 1998)

NS3 protease, sequence (P26663 1027-1657, other chains not shown): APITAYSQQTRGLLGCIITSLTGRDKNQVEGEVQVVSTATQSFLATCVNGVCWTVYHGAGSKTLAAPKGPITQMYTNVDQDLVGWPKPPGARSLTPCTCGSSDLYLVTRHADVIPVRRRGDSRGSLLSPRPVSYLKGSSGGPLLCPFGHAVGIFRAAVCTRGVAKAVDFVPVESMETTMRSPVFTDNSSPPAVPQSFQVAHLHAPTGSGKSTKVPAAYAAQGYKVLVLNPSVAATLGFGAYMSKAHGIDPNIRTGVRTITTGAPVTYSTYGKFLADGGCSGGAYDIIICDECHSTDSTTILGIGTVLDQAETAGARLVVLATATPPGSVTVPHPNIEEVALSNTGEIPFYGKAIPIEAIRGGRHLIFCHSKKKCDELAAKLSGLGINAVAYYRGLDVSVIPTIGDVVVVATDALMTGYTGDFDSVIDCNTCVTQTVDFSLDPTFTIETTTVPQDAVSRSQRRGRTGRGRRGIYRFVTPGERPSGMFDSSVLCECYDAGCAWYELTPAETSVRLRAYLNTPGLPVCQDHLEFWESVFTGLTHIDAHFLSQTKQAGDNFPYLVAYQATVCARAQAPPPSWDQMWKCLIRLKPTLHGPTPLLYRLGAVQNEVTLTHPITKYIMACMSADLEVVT

Row | Substance | IC50
1 | Ac-Asp^1-D-Glu^2-Leu^3-Ile^4-Cha^5-Cys^6-COO- | 15 nM
2 | Ac-Asp^1-L-Glu^2-Leu^3-Ile^4-Cha^5-Cys^6-COO- | 60 nM
